In patent US20230157952A1, “METHOD FOR IMPROVING THE STABILITY OF A PHARMACEUTICAL COMPOSITION COMPRISING A HIGH PENETRATION DRUG, AND THE PHARMACEUTICAL COMPOSITION OBTAINED THEREFROM” (Techfields Inc., priority 2020, published 2023):

Assay: Effect of temperature (and pH) on the stability of the solution (purity)
Type: physicochemical

SMILES: CCN(CC)CCOC(=O)Cc1ccccc1Oc1ccc(Cl)cc1Cl.Cl
- Purity (%) at day 21 (60° C.) (pH 1.0, 7% solution in water): 0%
- Purity(%) at day 0 (pH 1.0, 7% solution in water): 97.9 ± 0.3%
- Purity(%) at day 21 (5° C.) (pH 1.0, 7% solution in water): 91.3 ± 0.3%
- Purity(%) at day 21 (25° C.) (pH 1.0, 7% solution in water): 67.3 ± 0.3%
- Purity(%) at day 21 (40° C.) (pH 1.0, 7% solution in water): 15.1 ± 0.3%
- Purity (%) at day 21 (60° C.) (pH 2.0, 7% solution in water): 0%
- Purity(%) at day 0 (pH 2.0, 7% solution in water): 98.0 ± 0.2%
- Purity(%) at day 21 (5° C.) (pH 2.0, 7% solution in water): 95.1 ± 0.3%
- Purity(%) at day 21 (25° C.) (pH 2.0, 7% solution in water): 82.1 ± 0.3%
- Purity(%) at day 21 (40° C.) (pH 2.0, 7% solution in water): 27.0 ± 0.3%
- Purity (%) at day 21 (60° C.) (pH 3.0, 7% solution in water): 0%
- Purity(%) at day 0 (pH 3.0, 7% solution in water): 98.3 ± 0.2%
- Purity(%) at day 21 (5° C.) (pH 3.0, 7% solution in water): 97.0 ± 0.2%
- Purity(%) at day 21 (25° C.) (pH 3.0, 7% solution in water): 93.5 ± 0.2%
- Purity(%) at day 21 (40° C.) (pH 3.0, 7% solution in water): 48.3 ± 0.3%
- Purity (%) at day 21 (60° C.) (pH 3.7, 7% solution in water): 13.3 ± 0.5%
- Purity(%) at day 0 (pH 3.7, 7% solution in water): 98.4 ± 0.1%
- Purity(%) at day 21 (5° C.) (pH 3.7, 7% solution in water): 97.6 ± 0.2%
- Purity(%) at day 21 (25° C.) (pH 3.7, 7% solution in water): 96.9 ± 0.3%
- Purity(%) at day 21 (40° C.) (pH 3.7, 7% solution in water): 57.2 ± 0.2%
- Purity (%) at day 21 (60° C.) (pH 4.0, 7% solution in water): 18.2 ± 0.3%
- Purity(%) at day 0 (pH 4.0, 7% solution in water): 98.5 ± 0.1%
- Purity(%) at day 21 (5° C.) (pH 4.0, 7% solution in water): 98.0 ± 0.1%
- Purity(%) at day 21 (25° C.) (pH 4.0, 7% solution in water): 97.0 ± 0.2%
- Purity(%) at day 21 (40° C.) (pH 4.0, 7% solution in water): 68.1 ± 0.3%
- Purity (%) at day 21 (60° C.) (pH 4.3, 7% solution in water): 17.2 ± 0.2%
- Purity(%) at day 0 (pH 4.3, 7% solution in water): 98.5 ± 0.2%
- Purity(%) at day 21 (5° C.) (pH 4.3, 7% solution in water): 98.0 ± 0.1%
- Purity(%) at day 21 (25° C.) (pH 4.3, 7% solution in water): 97.0 ± 0.3%
- Purity(%) at day 21 (40° C.) (pH 4.3, 7% solution in water): 68.1 ± 0.3%
- Purity (%) at day 21 (60° C.) (pH 4.6, 7% solution in water): 14.3 ± 0.3%
- Purity(%) at day 0 (pH 4.6, 7% solution in water): 98.6 ± 0.1%
- Purity(%) at day 21 (5° C.) (pH 4.6, 7% solution in water): 98.1 ± 0.2%
- Purity(%) at day 21 (25° C.) (pH 4.6, 7% solution in water): 96.1 ± 0.2%
- Purity(%) at day 21 (40° C.) (pH 4.6, 7% solution in water): 54.5 ± 0.2%
- Purity (%) at day 21 (60° C.) (pH 5.0, 7% solution in water): 1.2 ± 0.2%
- Purity(%) at day 0 (pH 5.0, 7% solution in water): 98.4 ± 0.2%
- Purity(%) at day 21 (5° C.) (pH 5.0, 7% solution in water): 96.9 ± 0.2%
- Purity(%) at day 21 (25° C.) (pH 5.0, 7% solution in water): 93.1 ± 0.3%
- Purity(%) at day 21 (40° C.) (pH 5.0, 7% solution in water): 40.8 ± 0.3%
- Purity (%) at day 21 (60° C.) (pH 6.0, 7% solution in water): 0%
- Purity(%) at day 0 (pH 6.0, 7% solution in water): 98.2 ± 0.2%
- Purity(%) at day 21 (5° C.) (pH 6.0, 7% solution in water): 95.0 ± 0.2%
- Purity(%) at day 21 (25° C.) (pH 6.0, 7% solution in water): 86.7 ± 0.2%
- Purity(%) at day 21 (40° C.) (pH 6.0, 7% solution in water): 27.8 ± 0.2%
- Purity (%) at day 21 (60° C.) (pH 7.0, 7% solution in water): 0%
- Purity(%) at day 0 (pH 7.0, 7% solution in water): 98.0 ± 0.3%
- Purity(%) at day 21 (5° C.) (pH 7.0, 7% solution in water): 90.0 ± 0.3%
- Purity(%) at day 21 (25° C.) (pH 7.0, 7% solution in water): 59.3 ± 0.3%
- Purity(%) at day 21 (40° C.) (pH 7.0, 7% solution in water): 11.0 ± 0.4%
- Purity (%) at day 21 (60° C.) (pH 8.0, 7% solution in water): 0%
- Purity(%) at day 0 (pH 8.0, 7% solution in water): 97.8 ± 0.3%
- Purity(%) at day 21 (5° C.) (pH 8.0, 7% solution in water): 78.3 ± 0.3%
- Purity(%) at day 21 (25° C.) (pH 8.0, 7% solution in water): 47.1 ± 0.3%
- Purity(%) at day 21 (40° C.) (pH 8.0, 7% solution in water): 0%
